How the values were obtained:
[1] = system: IL-1 production by human monocytes; assay: Inhibition of in vitro IL-1 production by LPS-stimulated human monocytes (IL-1 bioassay via EL-4 IL-2 secretion); assay type: cell-based; settings: Monocyte; human peripheral blood monocytes, compound 1 hr before LPS 50 ng/ml, 24 hours at 37°C
Protocol: The effects of compounds of Formula (I) on the in vitro production of IL-1 by human monocytes was examined using the following protocol.
Bacterial lipopolysaccharide (LPS) was used to induce IL-1 production by human peripheral blood monocytes. IL-1 activity was measured by its ability to stimulate a Interleukin 2 (IL-2) producing cell line (EL-4) to secrete IL-2, in concert with A23187 ionophore, according to the method of Simon et al., J. Immunol. Methods, 84, 85, (1985). Human peripheral blood monocytes were isolated and purified from either fresh blood preparations from volunteer donors, or from blood bank buffy coats, according to the procedure of Colotta et al., J. Immunol., 132, 936 (1984). 1 X 10^6 of such monocytes were plated in 24-well plates at a concentration of 1-2 million/ml per well. The cells were allowed to adhere for 2 hours, after which time non-adherent cells were removed by gentle washing. Test compounds were then added to the cells for 1 hour (hr) before the addition of lipopolysaccharide (50 ng/ml), and the cultures were incubated at 37°C for an additional 24 hours. At the end of the incubation period, culture supernatants were removed and clarified of cells and all debris. Culture supernatants were immediately assayed for IL-1 biological activity in the manner described above, as well as for prostaglandin and/or leukotriene concentrations by radioimmunoassay.

[2] = system: TNF production by Human Monocytes; assay: Inhibition of in vitro TNF production by LPS-stimulated human monocytes (radioimmunoassay / ELISA); assay type: cell-based; settings: Monocyte; human peripheral blood monocytes, compound 45 minutes before LPS 100 ng/ml, 16-18 hours at 37°C
Protocol: The effects of compounds of Formula (I) on the in vitro production of TNF by human monocytes was examined using the following protocol.
Human peripheral blood monocytes were isolated and purified from either blood bank buffy coats or plateletpheresis residues, according to the procedure of Colotta, R. et al., J. Immunol., 132(2):936 (1984). The monocytes were plated at a density of 1 X 10^6 cells/ml medium/well in 24-well multi-dishes. […]
The assay buffer consisted of 0.01M NaPO4, 0.15M NaCl, 0.025M EDTA and 0.1% sodium azide at pH 7.4. […] Tubes were centrifuged for 30 minutes at 2000 rpm, supernatants were carefully aspirated, and radioactivity associated with the pellets measured in a Beckman Gamma 5500 counter. […] The concentrations of TNF in the samples was read of a standard curve of rhTNF that was linear in the 157 to 20,000 pg/ml range.
Iodination of rhTNF was performed using a modified chloramine-T method of Frolik et al., J. Biol. Chem., 259:10995-11000 (1984). […] The peak radioactivity containing fractions were pooled and stored at -20°C. […] Biological activity of iodinated TNF was measured by the L929 cytotoxicity assay of Neale, M.L. et al., Eur. J. Can. […]

| Structure (SMILES) | IC50 [1] | IC50 [2] |
| --- | --- | --- |
| Cc1cn(-c2ccncc2)c(-c2ccc(F)cc2)n1 [Example 5, 1-(4-pyridyl)-2-(4-fluorophenyl)-4-methylimidazole] | 0.1 to 5 µM |  |
| C[S+]([O-])c1ccc(-c2cn(-c3ccncc3)c(-c3ccc(F)cc3)n2)cc1 (stereo not shown) [Example 4, 1-(4-Pyridyl)-2-(4-fluorophenyl)-4-(4-methylsulfinylphenyl)imidazole] | > 5 µM |  |
| Fc1ccc(-c2nc(-c3ccccc3)cn2-c2ccncc2)cc1 [Example 1, 1-(4-Pyridyl)-2-(4-fluorophenyl)-4-phenylimidazole] | 0.1 to 5 µM | 0.5 to 3.5 µM |

The next lines start with the values.

| IC50 [1] | IC50 [2] | Structure (SMILES) |
| --- | --- | --- |
| > 5 µM |  | CSc1ccc(-c2cn(-c3ccncc3)c(-c3ccc(F)cc3)n2)cc1 [Example 3, 1-(4-Pyridyl)-2-(4-fluorophenyl)-4-(4-thiomethylphenyl) imidazole] |
| 0.1 to 5 µM | 0.5 to 3.5 µM | Oc1ccc(-c2cn(-c3ccncc3)c(-c3ccc(F)cc3)n2)cc1 [Example 2, 1-(4-Pyridyl)-2-(4-fluorophenyl)-4-(4-hydroxyphenyl)imidazole] |

Source: patent EP0624159B1, “PYRIDYL SUBSTITUTED IMIDAZOLES” (SMITHKLINE BEECHAM CORPORATION, priority 1992, dated 1993)
